Measured values from PubChem BioAssay AID1671332.

Target: Serine/threonine-protein kinase Nek7 (Homo sapiens) (UniProt Q8TDX7)
Test: inhibition of NEK7 serine/threonine kinase activity – biochemical, Z'-LYTE FRET, direct format, recombinant human, dose response (AID 1671332)

Sequence of Serine/threonine-protein kinase Nek7 (Homo sapiens) (Q8TDX7 whole entry, looked up): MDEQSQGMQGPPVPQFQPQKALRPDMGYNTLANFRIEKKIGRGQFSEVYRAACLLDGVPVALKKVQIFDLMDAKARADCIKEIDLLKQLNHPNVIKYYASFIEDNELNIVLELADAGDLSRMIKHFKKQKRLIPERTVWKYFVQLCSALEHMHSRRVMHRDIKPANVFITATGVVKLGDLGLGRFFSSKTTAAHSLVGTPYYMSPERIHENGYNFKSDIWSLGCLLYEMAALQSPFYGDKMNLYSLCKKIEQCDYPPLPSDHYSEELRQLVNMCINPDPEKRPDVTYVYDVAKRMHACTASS

`CN1C(=O)C2(Cc3cn(C45CC67SSC(CO)(C(=O)N6C4Nc4ccccc45)N(C)C7=O)c4ccccc34)SSC1(CO)C(=O)N2C` (stereo unspecified) showed an IC50 of 274 nM.
